Experimental data from patent US20250026724A1, “(1,4,5-TRISUBSTITUTED 1H-PYRAZOL-3-YL)OXY-2-ALKYLTHIOALKYL ACIDS AND -ALKYL ACID DERIVATIVES, SALTS THEREOF AND USE THEREOF AS ACTIVE HERBICIDAL INGREDIENTS” (BAYER AKTIENGESELLSCHAFT, priority 2021, published 2025).

What was measured:
Type in all cases: in vivo
[1] = test system: Triticum aestivum (TRZAS); test: Post-emergence crop plant compatibility, greenhouse pot trial; conditions: 20 g/ha, post-emergence, in comparison to untreated controls
Procedure: (§1) Seeds of monocotyledonous and dicotyledonous weeds and crop plants are placed in sandy loam in plastic or organic planting pots, covered with soil and cultivated in a greenhouse under controlled growth conditions. 2 to 3 weeks after sowing, the trial plants are treated at the one-leaf stage. The compounds of the invention, formulated in the form of wettable powders (WP) or as emulsion concentrates (EC), are then sprayed onto the green parts of the plants as aqueous suspension or emulsion with addition of 0.5% additive at a water application rate equivalent to 600 l/ha. After about 3 weeks of keeping the trial plants in the greenhouse under optimum growth conditions, the effect of the preparations is rated visually in comparison to untreated controls. For example, 100% activity=the plants have died, 0% activity=like control plants.
(§2) The observed effects on selected crop plants are reported here in comparison to the untreated controls (values in %). The appendices “a”, “b” and “c” give differentiation by dosage used with otherwise the same useful plants tested.
(§3) As shown by results from Tables B1 to B19, inventive compounds of the general formula (I) in the case of post-emergence treatment have good herbicidal efficacy against harmful plants, for example Abutilon theophrasti (ABUTH), Alopecurus myosuroides (ALOMY), Amaranthus retroflexus (AMARE), Avena fatua (AVEFA), Digitaria sanguinalis (DIGSA), Echinochloa crus-galli (ECHCG), Bassia scoparia (KCHSC), Lolium rigidum (LOLRI), Matricaria inodora (MATIN), Pharbitis purpurea (PHBPU), Polygonum convolvulus (POLCO), Setaria viridis (SETVI), Veronica persica (VERPE) and Viola tricolor (VIOTR) at an application rate of 320 g of active substance or less per hectare, and good crop plant compatibility in the case of organisms such as Oryza sativa (ORYSA), Zea mays (ZEAMX), Brassica napus (BRSNW), Glycine max (GLXMA) and Triticum aestivum (TRZAS) at an application rate of 320 g or less per hectare.

Zea mays (ZEAMX) = test: as above; conditions: in comparison to untreated controls
Procedure: as §1, §2, §3

[2] = test system: Abutilon theophrasti (ABUTH); test: Post-emergence herbicidal action, greenhouse pot trial; conditions: visual rating after about 3 weeks
Procedure, shortened: (§4)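 Sandy loam pots, greenhouse; one-leaf stage (2–3 wk after sowing); WP/EC in water, 0.5% additive, 600 l/ha spray volume; ≤320 g/ha; visual score vs untreated at ~3 wk, 0–100%.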

[3] = test system: Polygonum convolvulus (POLCO); test: as above; conditions: visual rating after about 3 weeks
Procedure, shortened: as §4

Setaria viridis (SETVI) = test: as above; conditions: 320 g/ha, visual rating after about 3 weeks
Procedure, shortened: as §4

Bassia scoparia (KCHSC) = test: as above
Procedure, shortened: as §4

Viola tricolor (VIOTR) = test: as above
Procedure, shortened: as §4

[4] = test system: Pharbitis purpurea (PHBPU); test: as above; conditions: visual rating after about 3 weeks
Procedure, shortened: as §4

[5] = test system: Echinochloa crus-galli (ECHCG); test: as above; conditions: visual rating after about 3 weeks
Procedure, shortened: as §4

[6] = test system: Amaranthus retroflexus (AMARE); test: as above; conditions: visual rating after about 3 weeks
Procedure, shortened: as §4

[7] = test system: Matricaria inodora (MATIN); test: as above; conditions: visual rating after about 3 weeks
Procedure, shortened: as §4

Lolium rigidum (LOLRI) = test: as above; conditions: 320 g/ha, visual rating after about 3 weeks
Procedure, shortened: as §4

[8] = test system: Alopecurus myosuroides (ALOMY); test: as above; conditions: 320 g/ha, visual rating after about 3 weeks
Procedure, shortened: as §4

[9] = test system: Digitaria sanguinalis (DIGSA); test: as above; conditions: visual rating after about 3 weeks
Procedure, shortened: as §4

Avena fatua (AVEFA) = test: as above; conditions: 320 g/ha, visual rating after about 3 weeks
Procedure, shortened: as §4

Glycine max (GLXMA) = test: Post-emergence crop plant compatibility, greenhouse pot trial; conditions: in comparison to untreated controls
Procedure: as §1, §2, §3

Veronica persica (VERPE) = test: Post-emergence herbicidal action, greenhouse pot trial; conditions: visual rating after about 3 weeks
Procedure, shortened: as §4

SMILES	Post-emergence effect against TRZAS (crop plant compatibility) [1]	Post-emergence effect against ZEAMX (crop plant compatibility) (Zea mays (ZEAMX); 20 g/ha)	Post-emergence effect at 80 g/ha against ABUTH in % [2]	Post-emergence effect at 320 g/ha against ABUTH in % [2]	Post-emergence effect at 80 g/ha against POLCO in % [3]	Post-emergence effect at 320 g/ha against POLCO in % [3]	Post-emergence effect at 320 g/ha against SETVI in % (Setaria viridis (SETVI))	Post-emergence effect against KCHSC (Bassia scoparia (KCHSC); 320 g/ha)	Post-emergence effect against VIOTR (Viola tricolor (VIOTR); 20 g/ha)	Post-emergence effect against VIOTR (Viola tricolor (VIOTR); 80 g/ha)	Post-emergence effect against VIOTR (Viola tricolor (VIOTR); 320 g/ha)	Post-emergence effect at 80 g/ha against PHBPU in % [4]	Post-emergence effect at 320 g/ha against PHBPU in % [4]	Post-emergence effect at 320 g/ha against ECHCG in % [5]	Post-emergence effect at 320 g/ha against AMARE in % [6]	Post-emergence effect at 80 g/ha against MATIN in % [7]	Post-emergence effect at 320 g/ha against MATIN in % [7]	Post-emergence effect at 320 g/ha against LOLRI in % (Lolium rigidum (LOLRI))	Post-emergence effect at 320 g/ha against DIGSA in % [9]	Post-emergence effect at 320 g/ha against AVEFA in % (Avena fatua (AVEFA))	also measured
COC(=O)CCOC(=O)C(Oc1nn(-c2ncccc2F)c(-c2ccc(F)nc2)c1Br)SC (single isomer, unassigned) [Example I-22]	0%	0%	90%	90%	90%	90%	80%	90%	80%	90%	90%	90%	90%	90%	80%						Post-emergence effect at 20 g/ha against PHBPU in % ([4]; 20 g/ha): 80%
COC(=O)CCOC(=O)C(Oc1nn(-c2ncccc2F)c(-c2ccc(F)nc2)c1Br)SC (single isomer, unassigned) [Example I-23]		0%	80%	90%	80%	90%	90%			80%	90%	80%	90%	90%	80%	80%	90%	90%	90%	80%	Post-emergence effect at 320 g/ha against ALOMY in % [8]: 80%; Post-emergence effect at 80 g/ha against DIGSA in % [9]: 90%; Post-emergence effect at 80 g/ha against ECHCG in % ([5]; 80 g/ha): 90%
COC(=O)CCOC(=O)C(Oc1nn(-c2ncccc2F)c(-c2cncc(F)c2)c1Br)SC (centres unmarked) [Example I-45]	0%	0%	90%	90%	80%	80%	90%	90%	80%	90%	90%	80%	80%	90%	90%	90%	90%	100%	90%	100%	Post-emergence effect against ZEAMX (crop plant compatibility) (Zea mays (ZEAMX); 80 g/ha): 0%; Post-emergence effect at 20 g/ha against MATIN in % ([7]; 20 g/ha): 80%; Post-emergence action at 20 g/ha against ABUTH in % [2]: 90%; Post-emergence effect at 80 g/ha against DIGSA in % [9]: 80%; Post-emergence effect at 20 g/ha against KCHSC in % (Bassia scoparia (KCHSC); 20 g/ha, visual rating after about 3 weeks): 90%; Post-emergence effect against KCHSC (Bassia scoparia (KCHSC); 80 g/ha): 90%; Post-emergence effect at 20 g/ha against AMARE in % [6]: 80%; Post-emergence effect at 80 g/ha against AMARE in % [6]: 90%
COC(=O)C(C)COC(=O)C(Oc1nn(-c2ccccc2F)c(-c2ccc(F)nc2)c1I)SC (centres unmarked) [Example I-53]	0%			80%		90%	90%	80%		80%	90%		80%	100%	90%		80%		80%		Post-emergence effect against GLXMA (crop plant compatibility) (Glycine max (GLXMA); 20 g/ha): 0%; Post-emergence effect against GLXMA (crop plant compatibility) (Glycine max (GLXMA); 80 g/ha): 0%
COC(=O)CCOC(=O)C(Oc1nn(-c2ncccc2F)c(-c2cncc(F)c2)c1C1CC1)SC (centres unmarked) [Example I-63]	20%	0%	80%	90%		80%	90%	90%	90%	90%	90%	90%	90%	90%	90%	80%	90%	90%		100%	Post-emergence action at 20 g/ha against ABUTH in % [2]: 80%; Post-emergence effect at 80 g/ha against VERPE in % (Veronica persica (VERPE); 80 g/ha): 80%; Post-emergence effect at 320 g/ha against VERPE in % (Veronica persica (VERPE); 320 g/ha): 90%; Post-emergence effect at 20 g/ha against AMARE in % [6]: 80%; Post-emergence effect at 80 g/ha against AMARE in % [6]: 80%
